Measurements taken from patent publication US5786324A, “Synthetic peptides with bactericidal activity and endotoxin neutralizing activity for gram negative bacteria and methods for their use” (priority 1994, dated 1998).
Where two headings read alike, the source gives them in different places. No end group written: not given here.

Legend:
[1] = tested on: Pseudomonas aeruginosa type 1; format: cell-based; settings: for Effective Dose Bactericidal pH 5.6 P. aeruginosa Molar Concentration: Table 5
Experimental: Bactericidal activity can be evaluated against a variety of bacteria such as Pseudomonas spp including aeruginosa and P. cepacia, E. coli B, and Staphylococcus aureus. The preferred organism is P. aeruginosa. Bactericidal activity is determined by identifying the effective dose for killing as the molar concentration of the peptide which results in at least a 60% killing of the bacteria, as determined by standard methods. Preferably, the peptide has an effective dose at a concentration of about 1×10^-4 M to about 1×10^-10 M, and more preferably 1×10^-7 M to 1×10^-9M . […] The effective dose for bactericidal activity of B/PI is seen at about […] . Bactericidal activity can also be determined by calculating a lethal dose 50 (LD50) using standard methods. The LD50 is that amount of peptide or protein that kills 50% of the bacteria when measured using standard dose response methods. A bactericidal peptide preferably has an LD50 of about 10^-4 M to about 10^-9 M , more preferably about 10^-7 to 10^-9 M .
(§1) The synthetically produced peptides were assayed for bactericidal activity against Pseudomonas aeruginosa, type 1, P. cepacia ATCC 25608, E. coli B, and Staphylococcus aureus 502A by standard methods.
(§2) Pseudomonas aeruginosa type 1 is a clinical isolate maintained in the laboratory since 1972. The isolate remains a smooth strain and was serotyped by the scheme of Homma. Homma, Jpn. J. Exp. Med., 46:329 (1976). A rough strain E. coli B and S. aureus 502A were obtained from Paul Quie, University of Minnesota. The characteristics of the S. aureus strain have been described in Shinefield et al., Amer. J. Dis. Chil., 105:646 (1963). Pseudomonas cepacia ATCC 25608 was purchased from the American Type Culture Collection in 1980. S. aureus and E. coli were maintained on nutrient agar plates and the Pseudomonas strains were maintained on blood agar plates.
(§3) Pyrogen-free solutions were used throughout this assay and all methods which follow. Log phase bacteria were prepared from a culture in brain heart infusion broth as previously described except that bacteria were washed and resuspended in saline with adjustment to an optical density at 650 nm which would yield 3×10^8 CFU/ml. Bacteria were then diluted 1:10 in 0.08M citrate phosphate buffer, pH 5.6 or pH 7.0, for use in the assay. S. aureus rapidly lost viability in the pH 5.6 buffer and was studied only at pH 7.0. Bactericidal activity was determined by dose response and where an LD50 is indicated, it was determined by linear regression.

P. cepacia ATCC 25608 = experiment: Bactericidal assay, P. cepacia; format: cell-based, Pseudomonas cepacia; settings: P. cepacia
Experimental: as §1, §2, §3

E. coli B = experiment: Bactericidal assay, E. coli B; format: cell-based
Experimental: as §1, §2, §3

[2] = tested on: Staphylococcus aureus 502A; format: cell-based
Experimental: as §1, §2, §3

Human lung fibroblasts = experiment: Toxicity for human lung fibroblasts, trypan blue exclusion; format: cell-based; settings: 30 minutes; for Percent Viability DMEM: DMEM plus 10% FCS; for Percent Viability PBS: pH 7.4
Experimental: The synthetic peptides were assayed for toxicity to cultured eukaryotic cells. Human lung fibroblasts were grown in monolayers in Dulbecco's Modified Eagles' Medium (DMEM) with 10% fetal calf serum (FCS) and originated as primary cultures of lung mesenchymal cells. The cells were trypsinized, washed with either DMEM plus FCS or phosphate-buffered saline (PBS), pH 7.4, and incubated with peptide at a final cell concentration of 1×10^7 /ml. Nine volumes of cell suspension were diluted with one volume of 0.4% trypan blue and the cells were counted with a hemocytometer, while also determining the fraction of cells which were increased in permeability to dye. There was no significant loss of cell number due to exposure of the fibroblasts to peptide.
^a Viability was determined by trypan blue exclusion following
incubation of cells with peptide for 30 minutes in DMEM plus 10% FCS or i

E. coli 055: B5 LPS = experiment: Limulus amoebocyte lysate assay, neutralization of endotoxin; format: biochemical; settings: for Effective Dose Endotoxin Neutralization (Molar Concentration): Table 8, LAL
Source text: The peptide selected can also have endotoxin neutralizing activity. […] Endotoxin neutralizing activity can also be measured by calculating an inhibitory dose 50 […] using standard does response methods. An inhibitory dose 50 is that amount of peptide that can inhibit 50% of the activity of endotoxin. Endotoxin activity can also be measured by determining the amount of release of tumor necrosis factor alpha (TNFα) from a macrophage cell line or by evaluating the symptoms of shock in animals. Peptides preferably neutralized endotoxin at a molar concentration of about 1×10^-4 M to about 10^-8 M , more preferably about 10^-5 M to about 10^-6 M .
The ability of synthetic peptides to neutralize endotoxin was detected with the E-TOXATE kit manufactured by Sigma Chemicals, St. Louis, Mo. […] Peptide was incubated with LPS at room temperature for 10 minutes in 100 μl of a 1:2 dilution of pyrogen-free saline, pH 6.4. The reaction was started by addition of 100 μl of amoebocyte lysate and the final volume was 200 μl.
^a The dose of peptide required to inhibit clotting of LAL by 100%.
Each tube contained 0.04 endotoxin units of E. coli LPS.

[3] = P. aeruginosa, pH 5.6, 1.2 × 10^-4 M
[4] = Table 7, dose required to inhibit clotting of LAL by 100%, 0.04 endotoxin units of E. coli LPS
[5] = P. aeruginosa, pH 5.6, 1.5 × 10^-5 M

Compound: CC(C)C[C@H](NC(=O)[C@H](Cc1ccccc1)NC(=O)[C@H](CCCNC(=N)N)NC(=O)[C@H](CCCCN)NC(=O)[C@H](CCC(N)=O)NC(=O)[C@H](C)NC(=O)[C@H](CCCCN)NC(=O)[C@H](Cc1c[nH]c2ccccc12)NC(=O)[C@H](CCCCN)NC(=O)[C@@H](N)CS)C(=O)N[C@@H](CCCCN)C(=O)O [Peptide 2, ckwkaqkrflk]
- % Killing of 5 × 10^6 Bacteria ([1]; type 1, 1.5e-6 M, pH 5.6): 83%
- % Killing of 5 × 10^6 Bacteria (P. cepacia ATCC 25608; pH 5.6, 1.5 × 10^-5 M): 80%
- % Killing of 5 × 10^6 Bacteria (P. cepacia ATCC 25608; pH 7.0, 1.5 × 10^-5 M): 78%
- % Killing of 5 × 10^6 Bacteria (E. coli B; E. coli B, pH 5.6, 1.5 × 10^-5 M, listed as C#90-99): 98%
- % Killing of 5 × 10^6 Bacteria (E. coli B; E. coli, pH 7.0, 1.5 × 10^-5 M): 90%
- % Killing of 5 × 10^6 Bacteria ([2]; 502A, 3e-5 M, pH 7): 95%
- Percent Viability DMEM (Human lung fibroblasts; 1.5 × 10^-5 M): 98.4%
- Percent Viability PBS (Human lung fibroblasts; 1.5 × 10^-5 M): 94.7%

Compound: CC(C)C[C@H](NC(=O)[C@H](Cc1ccccc1)NC(=O)[C@H](CCCNC(=N)N)NC(=O)[C@H](CCCCN)NC(=O)[C@H](CCC(N)=O)NC(=O)[C@H](C)NC(=O)[C@H](CCCCN)NC(=O)[C@H](Cc1c[nH]c2ccccc12)NC(=O)[C@@H](N)CCCCN)C(=O)N[C@@H](CCCCN)C(=O)O [Peptide 5, kwkaqkrflk]
- % Killing of 5 × 10^6 Bacteria ([1]; type 1, 1.5e-5 M, pH 5.6): 75%
- LD50 for P. aeruginosa ([1]; type 1, pH 5.6): 8.2 µM
- % Killing of 5 × 10^6 Bacteria (E. coli B; E. coli B, pH 5.6, 3.0 × 10^-5 M, listed as #90-99): 31%
- Percent Viability DMEM (Human lung fibroblasts; 1.5 × 10^-4 M): 98.0%
- Percent Viability PBS (Human lung fibroblasts; 1.5 × 10^-4 M): 89.4%

Compound: CEFYSENHHNPKWKAQKRFLK [Peptide 17, cefysenhhnpkwkaqkrflk]
- % Killing of 5 × 10^6 Bacteria ([1]; type 1, 3.0e-6 M, pH 5.6): 74%
- % Killing of 5 × 10^6 Bacteria (E. coli B; E. coli B, pH 5.6, 3.0 × 10^-5 M): 71%
- Percent Viability DMEM (Human lung fibroblasts; 1.5 × 10^-5 M): 99.2%
- Percent Viability PBS (Human lung fibroblasts; 1.5 × 10^-5 M): 92.3%

Compound: EFYSENHHNPKWKAQKRFLK [Peptide 18, efysenhhnpkwkaqkrflk]
- % Killing of 5 × 10^6 Bacteria ([1]; type 1, 3.0e-5 M, pH 5.6): 79%
- Percent Viability DMEM (Human lung fibroblasts; 1.5 × 10^-4 M): 98.8%
- Percent Viability PBS (Human lung fibroblasts; 1.5 × 10^-4 M): 95.6%

Compound: cefysenhhnp(g) [Peptide 3]
- % Killing of 5 × 10^6 Bacteria [1, 3]: 0%
- % Killing of 5 × 10^6 Bacteria ([1]; P. aeruginosa, pH 7.0, 1.2 × 10^-4 M): 0%
- Effective Dose Bactericidal pH 5.6 P. aeruginosa Molar Concentration ([1]; pH 5.6): -- (not active at concentrations of 1.2 × 10^-4 M or less)
- % Killing of 5 × 10^6 Bacteria (P. cepacia ATCC 25608; pH 5.6, 1.2 × 10^-4 M): 0%
- % Killing of 5 × 10^6 Bacteria (P. cepacia ATCC 25608; pH 7.0, 1.2 × 10^-4 M): 0%
- % Killing of 5 × 10^6 Bacteria (E. coli B; E. coli, pH 5.6, 1.2 × 10^-4 M): 0%
- % Killing of 5 × 10^6 Bacteria (E. coli B; E. coli, pH 7.0, 1.2 × 10^-4 M): 0%
- % Killing of 5 × 10^6 Bacteria ([2]; S. aureus, pH 7.0, 1.2 × 10^-4 M): 0%
- peptide concentration which neutralized endotoxin (100% inhibition of LPS-induced gelation) (E. coli 055: B5 LPS; 0.04 endotoxin units of E. coli 055: B5 LPS): 120 µM
- Effective Dose (μg/0.2 ml) (E. coli 055: B5 LPS; [4]): 34 μg/0.2 ml
- Effective Dose M (× 10^-4) (E. coli 055: B5 LPS; [4]): 1.2 M (× 10^-4)
- Effective Dose Endotoxin Neutralization (Molar Concentration) (E. coli 055: B5 LPS): 120 µM

Compound: kkkwfrlakq [Peptide 21]
- % Killing of 5 × 10^6 Bacteria [1, 5]: 71%
- Effective Dose Bactericidal pH 5.6 P. aeruginosa Molar Concentration ([1]; pH 5.6): 1.5 × 10^-5 M
- bacterial killing activity compared with parent peptide (in words) ([1]; pH 5.6, P. aeruginosa): retained biological activity
- Effective Dose Endotoxin Neutralization (Molar Concentration) (E. coli 055: B5 LPS): -- (not active at concentrations of 4.5 × 10^-4 M or less)

Compound: ktkckflkkc [Peptide 25, reference compound]
- % Killing of 5 × 10^6 Bacteria ([1]; P. aeruginosa, pH 5.6, 6.0 × 10^-6 M): 56%
- Effective Dose Bactericidal pH 5.6 P. aeruginosa Molar Concentration ([1]; pH 5.6): 6.0 × 10^-6 M
- Effective Dose Endotoxin Neutralization (Molar Concentration) (E. coli 055: B5 LPS): -- (not active at concentrations of 4.5 × 10^-4 M or less)

Compound: kwkaqkrflkc [Peptide 20b]
- % Killing of 5 × 10^6 Bacteria ([1]; P. aeruginosa, pH 5.6, 3.0 × 10^-6 M): 75%
- Effective Dose Bactericidal pH 5.6 P. aeruginosa Molar Concentration ([1]; pH 5.6): 3.0 × 10^-6 M
- Effective Dose Endotoxin Neutralization (Molar Concentration) (E. coli 055: B5 LPS): -- (not active at concentrations of 4.5 × 10^-4 M or less)

Compound: kwkfkqralk [Peptide 26]
- % Killing of 5 × 10^6 Bacteria [1, 5]: 61%
- Effective Dose Bactericidal pH 5.6 P. aeruginosa Molar Concentration ([1]; pH 5.6): 1.5 × 10^-5 M
- Effective Dose Endotoxin Neutralization (Molar Concentration) (E. coli 055: B5 LPS): 300 µM

Compound: msgnfdlsie [Peptide 29]
- Effective Dose Bactericidal pH 5.6 P. aeruginosa Molar Concentration ([1]; pH 5.6): -- (not active at concentrations of 1.2 × 10^-4 M or less)
- Effective Dose Endotoxin Neutralization (Molar Concentration) (E. coli 055: B5 LPS): 220 µM

Compound: nanikisgkwkaqkrflkmsgnfdlsi [Peptide 22]
- % Killing of 5 × 10^6 Bacteria ([1]; P. aeruginosa, pH 5.6, 6.0 × 10^-8 M): 74%
- Effective Dose Bactericidal pH 5.6 P. aeruginosa Molar Concentration ([1]; pH 5.6): 6.0 × 10^-8 M
- Effective Dose Endotoxin Neutralization (Molar Concentration) (E. coli 055: B5 LPS): 30 µM

Compound: qkrflkmsgn [Peptide 33]
- Effective Dose Bactericidal pH 5.6 P. aeruginosa Molar Concentration ([1]; pH 5.6): -- (not active at concentrations of 1.2 × 10^-4 M or less)
- Effective Dose Endotoxin Neutralization (Molar Concentration) (E. coli 055: B5 LPS): 450 µM

Compound: sdsflkikhlgkghysfysmdirefq [Peptide 12]
- % Killing of 5 × 10^6 Bacteria [1, 5]: 58%
- Effective Dose Bactericidal pH 5.6 P. aeruginosa Molar Concentration ([1]; pH 5.6): 1.5 × 10^-5 M
- Effective Dose Endotoxin Neutralization (Molar Concentration) (E. coli 055: B5 LPS): 75 µM

Compound: wkkfkqralk [Peptide 19]
- % Killing of 5 × 10^6 Bacteria [1, 3]: 65%
- Effective Dose Bactericidal pH 5.6 P. aeruginosa Molar Concentration ([1]; pH 5.6): 1.2 × 10^-4 M
- bactericidal activity, fold reduced versus the 90-99 peptide ([1]; pH 5.6, randomized sequence): 8 fold
- Effective Dose Endotoxin Neutralization (Molar Concentration) (E. coli 055: B5 LPS): -- (not active at concentrations of 4.5 × 10^-4 M or less)
